# Publication PMC7483518, “Destabilizing single chain major histocompatibility complex class I protein for repurposed enterokinase proteolysis” (Scientific Reports, 2020)
# Like-named read-outs stand apart in the source and are kept apart here.
# Columns and labels:
# [1] = biological target: photolabile unchained HLA-A*11:01 pMHC-I protein (Homo sapiens, UniProt P04439, A114D/D185E/E176A/F33Y/L180Q/S129P/T187R); test: ELISA with photolabile unchained pMHC-I protein and UV irradiation; assay type: binding; details: for ELISA450nm: Table 2, 62.5 nM photolabile pMHC-I mixture, 5 μM peptide in PBS, UV 365 nm 2 × 5 min on ice, 2 h room temperature on anti-β2m plate, Abs450nm − Abs570nm, instability cutoff < 0.6
# [2] = system: HLA-A*11:01 single chain protein; assay type: biochemical, Human; parameters: EZ50kDa / EZ50kD (pH 6.2) / EZ50kD (pH 8) / EZ50kD (normalised: EBV1101 = 1, EBV0201 = 0) / EZ50kDa rank: unit not given beside the values; details: for EZ50kDa rank: HLA-A*11:01 single chain protein, 9-mer peptides;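 for EZ50kD (pH 6.2): scaled with positive control peptide as 1 and negative control peptide as 0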
# [3] = EASY MHC-I A*11:01, 2019-07-25, mean of the 2 replicates
Sequence,ELISA450nm [1],EZ50kD (pH 6.2) ([2]; pH 6.2),other results
GSLLDYVREH [CS1026],,,EASY_mean [1]: -0.04117
GSLLDYVREHKD [CS1049],,,EASY_mean [1]: -0.02126
ICLTSTVQLIM [TM1028],,,"EZ_mean [2]: -0.09759; EASY_mean ([1]; […], mean, STDEV): -0.04901"
ICLTSTVQLIMQ [TM1039],,,"EZ_mean [2]: -0.1704; EASY_mean ([1]; ELISA signal, mean, […]): -0.09515"
IKTSPKAN [EX1002],,,EZ_mean [2]: -0.02894; EASY_mean [1]: -0.005748
IKTSPKANK [EX1007],,,"EZ_mean [2, 3]: -0.05095; EASY_mean ([1]; […], mean, STDEV): -0.0128"
IKTSPKANKE [EX1013],,,"EZ_mean [2, 3]: -0.04249; EASY_mean ([1]; […], mean, STDEV): -0.007577"
KFLPDLYDYK [reference compound],0.4809,,
KSGAIKVLK [reference compound],,0.819,EZ50kD (pH 8) [2]: 0.4865
KTFVDLMRR [reference compound],,0.8241,EZ50kD (pH 8) [2]: 0.165
"LLAQFTSAL [putative peptide, HBV, no IEDB entry]",0.214,,
LMPFGSLLDYVR [CS1045],,,EASY_mean [1]: 0.002285
LNIDLLWSV [reference compound],0.2738,,
LVSFLLLAGR [reference compound],,,EZ50kD (pH 8) [2]: 0.07206
LVVDFSQFSR [reference compound],,,"EZ50kD (pH 6.2) ([2]; Table 2, pH 6.2, 37 °C, enterokinase, Eq. (4), instability cutoff < 0.3): 0.9461"
MANEMGFLEK [reference compound],,0.527,
MATYGWNLVK [reference compound],,0.6384,EZ50kD (pH 8) [2]: 0.007553
MSYTMCSGK [reference compound],,1.198,"EZ50kDa rank ([2]; pH 6.2, 37 °C): 1.198; EZ50kD (pH 8) [2]: 1.094"
MVSRLLLNR [reference compound],,1.196,EZ50kD (pH 8) [2]: 0.2396
"MVWESGCTV [IEDB 140,054, Human; a known HLA-A*02:01 antigen, reference compound]",0.5937,,
"NILNPFLPLL [putative peptide, HBV, no IEDB entry]",0.2827,,

Sequence,ELISA450nm [1],EZ50kD (pH 6.2) ([2]; pH 6.2),other results
PFGSLLDYVRE [CS1035],,,EASY_mean [1]: -0.00332
PFGSLLDYVREH [CS1047],,,EASY_mean [1]: -0.01054
"RSQSPRRR [putative peptide, HBV, no IEDB entry]",0.1859,,
"RTLSPRRR [putative peptide, Streptomyces sp, no IEDB entry]",0.1209,,
"RTLSPRRRR [putative peptide, HBV, no IEDB entry]",0.8658,,
RTQSPRRR [reference compound],0.3319,,
RTQSPRRRR [reference compound],1.204,,
"STLPETTVIR [putative peptide, HBV, no IEDB entry]",1.302,,
SVQPTFSVQR [reference compound],,1.051,EZ50kD (pH 8) [2]: 0.7376
TLALEVAQQK [reference compound],,0.7399,EZ50kD (pH 8) [2]: 0.4517
TMVMELIRMIK [reference compound],0.748,,
TSGSPIIDK [reference compound],,0.7953,"EZ50kDa rank ([2]; pH 6.2, 37 °C): 0.795; EZ50kD (pH 8) [2]: 0.1596"
TTKRDLGMSK [reference compound],,0.796,EZ50kD (pH 8) [2]: 0.3796
TTYLGPLSCK [reference compound],,1.084,EZ50kD (pH 8) [2]: 1.911
TVIRRRGR [reference compound],0.1482,,
"TVVGRRGRSPR [putative peptide, HBV, no IEDB entry]",1.259,,
"TVVRRRCR [putative peptide, HBV, no IEDB entry]",0.4625,,
"TVVRRRCRSPR [putative peptide, HBV, no IEDB entry]",0.4145,,
VTRGAVLMHK [reference compound],,0.6228,
YVSAIAQTEK [reference compound],,0.3037,
